Data from patent US6395741B1, “Agent for prophylaxis or treatment of dysuria” (Tanabe Seiyaku Co., Ltd., priority 1998, dated 2002).
Square brackets hold non-standard residues; d marks the D form. Ends that are not written are not given here. Peptide text beside a SMILES is read from it. Nva = CCC[C@H](N)C(=O)O

Experiments:
[1] = tested on: smooth muscle of hypertrophied prostatic adenoma; conditions: Journal of Japanese Urology Society, vol. 84, No. 9, 1993; cited from earlier work
anesthetized dogs = assay: Urethral resistance increasing activity in the anesthetized dogs; assay type: in vivo, dog
Experimental: (§1) Polyethylene tubes were inserted to male adult mongrel dogs which had been fasted overnight (four dogs, weights: 10 to 14 kg), under pentobarbital anesthesia (30 mg/kg, i.v.), at the femoral veins on both sides. The anesthesia was maintained by continuous transfusion of pentobarbital (4.5 mg/kg) from said polyethylene tubes, and the dogs were ventilated by a respirator for animal (20 strokes per minute, 15 ml/kg/ventilation). Then, a polyethylene tube was inserted for administration of a test compound into the duodenum, and the urinary bladder and the proximal urethra were exposed. In order to avoid the urinary backup within the urinary bladder, a polyethylene tube having a silicon tube was inserted at the ureters on both sides, by which a way for excreting the urine from the body was reserved. Moreover, in order to determine the ventral and dorsal prostatic urethral resistances, the apex of the urinary bladder was incised, and a 2-hole open-tip catheter (12Fr, manufactured by CLINY) was inserted into the prostatic urethra through the bladder body. Said catheter was ligated at the proximal urethra and the bladder body, and one of the ends thereof was connected with a pressure-transducer and a syringe pump (SP-25, manufactured by Terumo Corporation) via a three-way turncock. Then, the change in the perfusion pressure (i.e., the change in the urethral resistance, mmHg) caused by the continuous infusion of physiological saline (37° C., 3 ml/hr) through this catheter was recorded on a linearcorder (WR-3701, manufactured by Graphtec Corporation) via a carrier amplifier (AP-621G, manufactured by Nihon Kohden Corporation).
In order to increase the urethral resistance, a solution of phenylephrine (α1 agonist) or endothelin-1 in physiological saline was intravenously administered at a prescribed dose (volume: 0.1 ml/kg) to the dogs when 60 minutes or more elapsed after the above operation.

[2] = tested on: increase in urethral resistance induced by endothelin-1; assay: Inhibitory activity against the increase in urethral resistance induced by endothelin-1; assay type: in vivo, dog; conditions: intraduodenal administration 1 mg/kg; endothelin-1 0.4 nmol/kg i.v.; dogs
Experimental: as §1, with “Moreover, in order to determine the ventral and dorsal prostatic urethral resistances, the apex of the urinary bladder was incised, and a 2-hole open-tip catheter (12Fr, manufactured by CLINY) was inserted into the prostatic urethra through the bladder body. Said catheter was ligated at the proximal urethra and the bladder body, and one of the ends thereof was connected with a pressure-transducer and a syringe pump (SP-25, manufactured by Terumo Corporation) via a three-way turncock.” left out, “Corporation). […]” for “Corporation).”

[3] = tested on: prostatic contractions induced by endothelin-1; conditions: JP-A-8-508034; cited from earlier work

In the case of `CCC[C@@H]1NC(=O)[C@@H](C(C)C)NC(=O)[C@@H]2CCCN2C(=O)[C@@H](CC(=O)O)NC(=O)[C@@H](Cc2c[nH]c3ccccc23)NC1=O` (cyclo([Nva][dW][dD]P[dV])), the “Inhibition of contractions of the smooth muscle of hypertrophied prostatic adenoma induced by endothelin-1” value [1] is listed as “inhibited”.
In the case of `CNC[C@H](O)c1cccc(O)c1` [phenylephrine], the “Urethral pressure (increase of the prostatic urethral resistance)” value (anesthetized dogs; phenylephrine i.v. 0.3 μg/kg, anesthetized dogs) was 0.8 mmHg, the “Urethral pressure (increase of the prostatic urethral resistance)” value (anesthetized dogs; phenylephrine i.v. 1 μg/kg, anesthetized dogs) was 2.1 mmHg and the “Urethral pressure (increase of the prostatic urethral resistance)” value (anesthetized dogs; phenylephrine i.v. 3 μg/kg, anesthetized dogs) was 3.3 mmHg. The “Urethral pressure (increase of the prostatic urethral resistance)” value (anesthetized dogs; phenylephrine i.v. 10 μg/kg, anesthetized dogs) was 4.6 mmHg and the “Urethral pressure (increase of the prostatic urethral resistance)” value (anesthetized dogs; phenylephrine i.v. 30 μg/kg, anesthetized dogs) was 4.9 mmHg.
With `Cc1ccc(-c2c(NS(=O)(=O)c3ccc(C(C)(C)CO)cc3)ncnc2OCCOc2ncc(Br)cn2)cc1.[Na]` [test compound, 4-(2-hydroxy-1,1-dimethylethyl)-N-[6-{2-(5-bromopyrimidin-2-yloxy)ethoxy}-5-(4-methylphenyl)pyrimidin-4-yl]benzenesulfonamide sodium salt 1.5 hydrate] the “Inhibition of the increase in urethral resistance induced by endothelin-1” value [2] was “completely inhibited”.
In the case of “N-(4-isopropylbenzenesulfonyl)-α-(4-carboxy-2-n-propylphenoxy)-3,4-methylenedioxyphenylacetamide dipotassium salt”, the “Activity of inhibiting the prostatic contractions induced by endothelin-1” value [3] is listed as “shows an activity of inhibiting”.
For “endothelin-1 (CSCSSLMDKECVYFCHLDIIW; ends and bridges not checked; cysteine pairing not given here; UniProt P05305 53-73, looked up)”, the “Average increase of the urethral resistance relative to phenylephrine at 30 μg/kg” value (anesthetized dogs; endothelin-1 0.4 nmol/kg vs phenylephrine 30 μg/kg, i.v., dogs) was “about 4 times”, the “Urethral pressure (increase of the prostatic urethral resistance)” value (anesthetized dogs; endothelin-1 i.v. 0.05 nmol/kg, anesthetized dogs) was 2.2 mmHg and the “Urethral pressure (increase of the prostatic urethral resistance)” value (anesthetized dogs; endothelin-1 i.v. 0.1 nmol/kg, anesthetized dogs) was 4.5 mmHg. The “Urethral pressure (increase of the prostatic urethral resistance)” value (anesthetized dogs; endothelin-1 i.v. 0.2 nmol/kg, anesthetized dogs) was 14.3 mmHg, the “Urethral pressure (increase of the prostatic urethral resistance)” value (anesthetized dogs; endothelin-1 i.v. 0.4 nmol/kg, anesthetized dogs) was 18.9 mmHg and the “Urethral pressure (increase of the prostatic urethral resistance)” value (anesthetized dogs; endothelin-1 i.v. 0.8 nmol/kg, anesthetized dogs) was 15.4 mmHg. The “Duration of the urethral resistance increasing activity” value (anesthetized dogs; i.v., anesthetized dogs, compared with phenylephrine) was “more long-acting than that of phenylephrine”.
